Test in all cases: In vitro MIC, broth dilution
What all share (format): cell-based

Test [1] concerns P. aeruginosa GC 4532. The conditions noted are these: Pseudomonas aeruginosa, GC4532.
Test [2] relates to E. coli GC 4559. To be noted: Escherichia coli, GC4559.
For test [3], the system named is K. pneumoniae GC 4534. The conditions noted are these: Klebsiella pneumoniae, GC4534.
The test system of test [4] is E. faecalis GC 4555. The conditions noted are these: Enterococcus faecalis, GC4555. How it is done: (§1) The minimum inhibitory concentration (MIC), the lowest concentration of the antibiotic which inhibits growth of the test organism, is determined by the broth dilution method using Muller-Hinton II […] (Baltimore Biological Laboratories) following the recommendations of National Committee for Clinical Laboratory Standards. [Reference for the Methods for dilution antimicrobial susceptibility tests for bacteria that grow aerobically: National Committee for Clinical Laboratory Standards, 1997. Approved standard M7-A National Committee for Clinical Laboratory Standards, Wayne, Pa.] An inoculum level of 5×10^5 CFU/ml, and a range of antibiotic concentrations (64-0.06 μg/ml) is used. The MIC is determined after the microtiter plates are incubated for 18 hours at 35° C. in an ambient air incubator. The test organisms comprise a spectrum of gram-positive bacteria including Staphylococcus sp., Streptococcus sp. and Enterococcus sp. These organisms include recent clinical isolates that are resistant to methicillin, penicillin and vancomycin.

Test [5] has as its system S. aureus GC 4536. The conditions noted are these: Staphylococcus aureus, GC4536. How it is done: as §1
Test [6] concerns CNS GC 4547. As for the experimental part:
as §1

For test [7], the system named is E. faecalis GC 842. The conditions noted are these: Enterococcus faecalis, GC842. As for the experimental part:
as §1

Test [8] concerns CNS GC 4538. As for the experimental part: as §1
In test [9] the test system is E. faecalis GC 2242. To be noted: Enterococcus faecalis, GC2242. As for the experimental part:
as §1

Test [10] concerns CNS GC 4537. How it is done:
as §1

Test [11] has as its system S. aureus GC 2216. The conditions noted are these: Staphylococcus aureus, GC2216. How it is done: as §1
The subject of test [12] is S. aureus GC 1131. To be noted: Staphylococcus aureus, GC1131. As for the experimental part:
as §1

Test [13] deals with S. marcescens GC 4077. To be noted: Serratia marcescens, GC4077.
Test [14] has as its system E. cloacae GC 3783. To be noted: Enterobacter cloacae, GC3783.
Test [15] relates to M. morganii GC 4531. To be noted: Morganella morganii, GC4531.
Test [16] has as its system E. coli GC 2203. To be noted: Escherichia coli, GC2203.
Test [17] has as its system E. coli GC 3226. The conditions noted are these: Escherichia coli, GC3226.
Test [18] concerns P. aeruginosa GC 2214. The conditions noted are these: Pseudomonas aeruginosa, GC2214.
Test [19] deals with E. coli GC 4560. The conditions noted are these: Escherichia coli, GC4560.
The test system of test [20] is C. albicans GC 3066. To be noted: Candida albicans, GC3066.
Setting [21] is: P. aeruginosa GC 4532, read-out: MIC.
Where [22] appears, read: K. pneumoniae GC 4534, read-out: MIC.
The mark [23] stands for this setting: E. faecalis GC 4555, read-out: MIC.
Where [24] appears, read: S. aureus GC 4536, read-out: MIC.
Where [25] appears, read: E. faecalis GC 842, read-out: MIC.
[26] abbreviates: E. faecalis GC 2242, read-out: MIC.
The mark [27] stands for this setting: S. aureus GC 2216, read-out: MIC.
The mark [28] stands for this setting: S. aureus GC 1131, read-out: MIC.
Setting [29] is: S. marcescens GC 4077, read-out: MIC.
[30] abbreviates: E. cloacae GC 3783, read-out: MIC.
Where [31] appears, read: M. morganii GC 4531, read-out: MIC.
The mark [32] stands for this setting: P. aeruginosa GC 2214, read-out: MIC.
Setting [33] is: C. albicans GC 3066, read-out: MIC.

By MIC is commonly meant the lowest concentration that inhibits growth of the organism.

Each structure is given as a SMILES string. ≈ marks a conversion by molar mass, not a printed value. Read-outs that look alike come from different tables or passages of the source.

Take `COc1ccc(Cn2c(=O)ccn([C@@H]3OC([C@@H](O)[C@H](NCCCNC(=O)[C@@H](NC(=O)OCc4ccccc4)[C@H](C)O)C(=O)OC(C)(C)C)[C@@H](O[Si](C)(C)C(C)(C)C)[C@H]3O[Si](C)(C)C(C)(C)C)c2=O)cc1` (stereo partly drawn) [Example 8, tert-Butyl (5S,12S)-12-[(S)-[(3R,4R,5R)-3,4-bis{[tert-butyl(dimethyl)silyl]oxy}-5-(3-(4-methoxybenzyl)-2,4-dioxo-3,4-dihydro-1(2H)-pyrimidinyl)tetrahydro-2-furanyl](hydroxy)methyl]-5-[(1S)-1-hydroxyethyl]-3,6-dioxo-1-phenyl-2-oxa-4,7,11-triazatridecan-13-oate]: the MIC in [1] is 64 mg/L (≈ 63.1 µM); in [2], more than 128 mg/L; in test [3] it was 64 mg/L (≈ 63.1 µM); in test [4], 64 mg/L (≈ 63.1 µM); in test [5], 128 mg/L (≈ 126 µM); in [6], 128 mg/L (≈ 126 µM). Besides, the MIC in test [7] worked out at 64 mg/L (≈ 63.1 µM); in test [8] it was 128 mg/L (≈ 126 µM); in test [9], 64 mg/L (≈ 63.1 µM); in test [10], 128 mg/L (≈ 126 µM); in [11], 128 mg/L (≈ 126 µM); in test [12], 128 mg/L (≈ 126 µM). In addition, the minimum inhibitory concentration (MIC) was 64 mg/L (≈ 63.1 µM) in test [13]; 64 mg/L (≈ 63.1 µM) in test [14]; 64 mg/L (≈ 63.1 µM) in test [15]; 64 mg/L (≈ 63.1 µM) in [16]; more than 128 mg/L in test [17]; 64 mg/L (≈ 63.1 µM) in test [18]. Besides, the values for the MIC in test [19] and in test [20] were 64 mg/L (≈ 63.1 µM) and 32 mg/L (≈ 31.5 µM), respectively.
On to `COc1ccc(Cn2c(=O)ccn([C@@H]3OC([C@@H](O)[C@H](NCCCNC(=O)[C@@H](N)[C@H](C)O)C(=O)OC(C)(C)C)[C@@H](O[Si](C)(C)C(C)(C)C)[C@H]3O[Si](C)(C)C(C)(C)C)c2=O)cc1` (stereo partly drawn) [Example 9, tert-Butyl (2S,3S)-2-[(3-{[(2S,3S)-2-amino-3-hydroxybutanoyl]amino}propyl)amino]-3-[(3R,4R,5R)-3,4-bis{[tert-butyl(dimethyl)silyl]oxy}-5-(3-(4-methoxybenzyl)-2,4-dioxo-3,4-dihydro-1(2H)-pyrimidinyl)tetrahydro-2-furanyl]-3-hydroxypropanoate], for which the MIC in [1] (setting [21]) is 128 mg/L (≈ 145 µM); in [2] (E. coli GC 4559, read-out: MIC) it was more than 128 mg/L; in test [3] (setting [22]), more than 128 mg/L; in [4] (setting [23]), 128 mg/L (≈ 145 µM); in [5] (setting [24]), 128 mg/L (≈ 145 µM); in test [6] (CNS GC 4547, read-out: MIC) it was 8 mg/L (≈ 9.09 µM). Besides, the MIC in test [7] (setting [25]) was more than 128 mg/L; in [8] (CNS GC 4538, read-out: MIC), 128 mg/L (≈ 145 µM); in test [9] (setting [26]), 128 mg/L (≈ 145 µM); in test [10] (CNS GC 4537, read-out: MIC), 128 mg/L (≈ 145 µM); in test [11] (setting [27]), 128 mg/L (≈ 145 µM); in [12] (setting [28]) it was 128 mg/L (≈ 145 µM). For the same compound, the MIC in test [13] (setting [29]) was more than 128 mg/L; in [14] (setting [30]), more than 128 mg/L; in test [15] (setting [31]), more than 128 mg/L; in test [16] (E. coli GC 2203, read-out: MIC), more than 128 mg/L; in test [17] (E. coli GC 3226, read-out: MIC), more than 128 mg/L; in [18] (setting [32]), 128 mg/L (≈ 145 µM). Also, the MIC in [19] (E. coli GC 4560, read-out: MIC) was found to be 128 mg/L (≈ 145 µM); in test [20] (setting [33]), 128 mg/L (≈ 145 µM).
Take `COc1ccc(Cn2c(=O)ccn([C@@H]3OC([C@H](O)[C@H](NCCCNC(=O)[C@@H](NC(=O)OCc4ccccc4)[C@H](C)O)C(=O)OC(C)(C)C)[C@@H](O[Si](C)(C)C(C)(C)C)[C@H]3O[Si](C)(C)C(C)(C)C)c2=O)cc1` (stereo partly drawn) [Example 10, tert-Butyl (5S,12S)-12-[(R)-[(3R,4R,5R)-3,4-bis{[tert-butyl(dimethyl)silyl]oxy}-5-(3-(4-methoxybenzyl)-2,4-dioxo-3,4-dihydro-1(2H)-pyrimidinyl)tetrahydro-2-furanyl](hydroxy)methyl]-5-[(1S)-1-hydroxyethyl]-3,6-dioxo-1-phenyl-2-oxa-4,7,11-triazatridecan-13-oate]: the MIC in test [1], in test [2], in test [3], in test [4], in test [5] and in test [6] was more than 128 mg/L throughout. Moreover, the MIC was more than 128 mg/L in test [7]; more than 128 mg/L in [8]; 128 mg/L (≈ 126 µM) in test [9]; more than 128 mg/L in test [10]; more than 128 mg/L in test [11]; more than 128 mg/L in [12]. In addition, the MIC in test [13], in [14], in test [15], in [16], in test [17] and in [18] was more than 128 mg/L in each case. The MIC in [19] was more than 128 mg/L; in test [20], 128 mg/L (≈ 126 µM).
Regarding `COc1ccc(Cn2c(=O)ccn([C@@H]3OC([C@H](O)[C@H](NCCCNC(=O)[C@@H](N)[C@H](C)O)C(=O)OC(C)(C)C)[C@@H](O[Si](C)(C)C(C)(C)C)[C@H]3O[Si](C)(C)C(C)(C)C)c2=O)cc1` (stereo partly drawn) [Example 11, tert-Butyl (2S,3R)-2-[(3-{[(2S,3S)-2-amino-3-hydroxybutanoyl]amino}propyl)amino]-3-[(3R,4R,5R)-3,4-bis{[tert-butyl(dimethyl)silyl]oxy}-5-(3-(4-methoxybenzyl)-2,4-dioxo-3,4-dihydro-1(2H)-pyrimidinyl)tetrahydro-2-furanyl]-3-hydroxypropanoate], the MIC in [1] (setting [21]) was more than 128 mg/L; in [2] (E. coli GC 4559, read-out: MIC), more than 128 mg/L; in test [3] (setting [22]) it was more than 128 mg/L; in [4] (setting [23]), 4 mg/L (≈ 4.54 µM); in [5] (setting [24]) it was 4 mg/L (≈ 4.54 µM); in test [6] (CNS GC 4547, read-out: MIC), 8 mg/L (≈ 9.09 µM). The MIC in [7] (setting [25]) turned out to be 4 mg/L (≈ 4.54 µM); in test [8] (CNS GC 4538, read-out: MIC) it was 4 mg/L (≈ 4.54 µM); in test [9] (setting [26]), 8 mg/L (≈ 9.09 µM); in test [10] (CNS GC 4537, read-out: MIC), 4 mg/L (≈ 4.54 µM); in test [11] (setting [27]), 4 mg/L (≈ 4.54 µM); in test [12] (setting [28]) it was 8 mg/L (≈ 9.09 µM). Moreover, the MIC in test [13] (setting [29]) is more than 128 mg/L; in test [14] (setting [30]), more than 128 mg/L; in [15] (setting [31]) it was more than 128 mg/L; in test [16] (E. coli GC 2203, read-out: MIC), more than 128 mg/L; in test [17] (E. coli GC 3226, read-out: MIC), more than 128 mg/L; in test [18] (setting [32]), 128 mg/L (≈ 145 µM). Further, the MIC in [19] (E. coli GC 4560, read-out: MIC) was more than 128 mg/L; in test [20] (setting [33]), more than 128 mg/L.
For `COc1ccc(Cn2c(=O)ccn([C@@H]3OC([C@H](O)[C@H](NCCCNC(=O)[C@H](Cc4ccccc4)NC(=O)OCc4ccccc4)C(=O)OC(C)(C)C)[C@@H](O[Si](C)(C)C(C)(C)C)[C@H]3O[Si](C)(C)C(C)(C)C)c2=O)cc1` (stereo partly drawn) [Example 12, tert-Butyl (5S,12S)-5-benzyl-12-[(R)-[(3R,4R,5R)-3,4-bis{[tertbutyl(dimethyl)silyl]oxy}-5-(3-(4-methoxybenzyl)-2,4-dioxo-3,4-dihydro-1(2H)-pyrimidinyl)tetrahydro-2-furanyl](hydroxy)methyl]-3,6-dioxo-1-phenyl-2-oxa-4,7,11-triazatridecan-13-oate], the MIC is 128 mg/L (≈ 121 µM) in test [1]; more than 128 mg/L in test [2]; more than 128 mg/L in test [3]; 128 mg/L (≈ 121 µM) in test [4]; more than 128 mg/L in [5]; 128 mg/L (≈ 121 µM) in test [6]. Moreover, the MIC is 128 mg/L (≈ 121 µM) in [7]; more than 128 mg/L in test [8]; 128 mg/L (≈ 121 µM) in [9]; more than 128 mg/L in test [10]; more than 128 mg/L in test [11]; more than 128 mg/L in [12]. Besides, the MIC was 128 mg/L (≈ 121 µM) in test [13]; 128 mg/L (≈ 121 µM) in test [14]; 128 mg/L (≈ 121 µM) in [15]; more than 128 mg/L in test [16]; more than 128 mg/L in [17]; 128 mg/L (≈ 121 µM) in test [18]. The MIC in test [19] and in test [20] was 128 mg/L (≈ 121 µM) throughout.

For the origin of these results see patent publication US6858591B2, “Antibiotic AA 896 analogs” (Wyeth Holdings Corporation, priority 2001, dated 2005).
